Patent US7223733B2, “Modulation of TRIP-Br function and method of treating proliferative disorders” (National University of Singapore, priority 2004, dated 2007)
Where no end group is shown, it is not given here. [invdT] = inverted (3'-3') thymidine

Columns and labels:
Assay type in all cases: cell-based, human
WI-38 cells [1] = experiment: BrdU incorporation, serum-induced S phase entry of WI-38 cells; settings: WI-38, 0.1 μM, 20 h; compared to unstimulated cells
Procedure: DNA enzyme transfection. WI-38 cells were rendered quiescent by cultivation in serum-free medium for 72 h before being transfected with DNA enzyme (0.1 μM) using Superfect as reported previously (Santiago, F. S., et al. Nat Med 5, 1264-1269 (1999)) in accordance to manufacturer's recommendations (Qiagen).
(§1) Cell proliferation assays. For the BrdU incorporation assays, growth-quiescent WI-38 cells in 96-well dishes were transfected with DNA enzyme and/or 100 ng of pCMV/E2F1, pCMV/DP1, pRSV/Cyclin E, or pCMV/Cdk2 and then exposed to Bromodeoxyuridine (BrdU, 100 μM) in the presence or absence of 10% FBS for 20 h. Bromodeoxyuridine (BrdU) incorporation was monitored with a calorimetric ELISA assay using a cell proliferation kit according to manufacturer's recommendations (Boehringer Mannheim). For manual cell count, growth-quiescent WI-38 cells in 24-well dishes were transfected with DNA enzyme and then exposed to 10% FBS for 72 h. The cells were rinsed with PBS, pH 7.4, and trypsinized, and 10 μl of cell suspension was taken from each sample and mixed with equal volume of trypan blue stain (Sigma, 0.4% w/v in 1×PBS). The number of unstained cells was enumerated manually using a hemocytometer. For colony formation assays, growth-quiescent WI-38 cells in 12-well dishes were transfected with DNA enzyme and then exposed to 10% FBS for 120 h. Cells were stained in situ with crystal violet (0.75% w/v hexamethyl-p-rosaniline chloride [SIGMA], 50% ethanol, 1.75% w/v paraformaldehyde, 0.25% w/v NaCl) for 10 min, and then rinsed thoroughly with deionized water to remove excess stains.
FIG. 13: (A) E-Br1 or E-Br2 suppresses serum-inducible S phase entry. Sub-confluent WI-38 cells were serum-starved for 72 h. Following DNA enzyme transfection, the cultures were re-stimulated with serum and allowed to proliferate in BrdU labeling medium. After 20 h, cells were assayed for BrdU incorporation with a colorimetric ELISA assay. Values represent the average of at least two independent experiments. […] Sub-confluent WI-38 cells were serum-starved for 72 h. […]

WI-38 cells [2] = experiment: BrdU incorporation, E2F1/DP1 and cyclin E/Cdk2-induced S phase entry of quiescent WI-38 cells; settings: quiescent WI-38, 0.1 μM
Procedure: as §1
FIG. 13: (A) E-Br1 or E-Br2 suppresses serum-inducible S phase entry. […]

[3] = tested on: cyclin E, Cdk4, cyclin D1 and p27^KIP1; experiment: Western blot of cyclin E, Cdk4, cyclin D1 and p27KIP1 in WI-38 cells; settings: WI-38, 20 h
Procedure: Western blotting analysis. Cells in 6-well culture dish were washed in cold PBS and lysed in sample buffer (50 mM Tris-Cl, pH 6.8, 2% SDS, 10% glycerol, 0.1% bromophenol blue and 100 mM DTT). Whole cell lysates were heated at 100° C. for 10 minutes prior to electrophoresis. Separation of complex protein mixtures was achieved using a discontinuous polyacrylamide gel electrophoresis system consisting of a stacking gel and a 10% separating gel. Electrophoresis was performed with 1× running buffer (25 mM Tris pH 8.6, 0.19 M glycine, 0.1% SDS) in a mini vertical electrophoresis apparatus (BIO-RAD) at constant voltage (80 V). Separated proteins were transferred to nitrocellulose membrane (Immobilon™-P, Millipore) by electro-blotting (30V overnight at 4° C.) in transfer buffer (50 mM Tris, 384 mM glycine, 20% methanol, 0.01% SDS). Following blocking (1×PBS, 0.5% Tween 20, 4% [w/v] non-fat milk), target proteins were detected using a 1:2,500 dilution of specific primary antibodies. Anti-mouse or anti-rabbit IgG antibodies conjugated with horseradish peroxidase (Santa Cruz) were used to visualize immunoreactive proteins at 1:2,500 dilutions using enhanced chemiluminescence (Pierce).
FIG. 14: (A) E-Br1 or E-Br2 attenuates mitogen-stimulated CCNE gene induction. Sub-confluent WI-38 cells were serum-starved for 72 h. Following DNA enzyme transfection, the cultures were re-stimulated with serum and allowed to proliferate. After 20 h, cells were harvested and total RNA extracted for semi-quantitative RT-PCR to assess CCNE expression. β-actin was included as an internal control. PCR products were resolved by agarose gel electrophoresis and ethidium bromide-stained DNA bands were visualized under UV. […] Sub-confluent WI-38 cells were serum-starved for 72 h. Following transfection with DNA enzyme, the cultures were allowed to proliferate. After 20 h, cells were harvested for western blot (WB) analysis of cyclin E, Cdk4, cyclin D1 and p27^KIP1 expression. Coomassie-stained protein was included as control for normalization.

[4] = tested on: KRIP-1-associated co-activating function on GAL4-TRIP-Br transcriptional activity; experiment: GAL4-TRIP-Br/KRIP-1 luciferase reporter assay in U2OS cells; settings: 50 μM decoy peptide
Procedure: DNA Transfection and Sequential β-Galactosidase/Luciferase Assay. For luciferase reporter assays, U2OS cells were cultured in 6-well dishes and transfected 24 h later with various reporter plasmids by the calcium precipitation method as previously described (Martin, K., et al. Nature 375, 691-694 (1995)). 24 h following precipitate removal, cells were exposed for 5 h to either vehicle (0.5% DMSO) or 50 μM of decoy peptide, prior to harvesting. Cells were scraped in 200 μl of lysis buffer and a single 10 μl aliquot of lysate was immediately used for sequential measurement of β-galactosidase and luciferase activity using the Dual Light System (Tropix). For protein overexpression experiments, U2OS cells were cultured in 6-well plates at a density of 1×10^5 cells/well and transfected 24 h later with Superfect reagent (QIAGEN).
FIG. 1: TRIP-Br decoy peptides antagonize KRIP-1/TRIP-Br PHD-bromodomain interactions. […] GAL4-KRIP-1 was specifically immunoprecipitated by the agarose-conjugated anti-GAL4 antibody (Lanes 3-5 & 7–10) but not by the non-specific control anti-cyclin E antibody (Lane 6); (B) Antagonism of PHD-bromodomain interactions in vivo. U2OS cells were transiently transfected with 0.4 μg of the indicated GAL4 expression constructs and 1.2 μg of pMT3A/KRIP-1, along with 0.4 μg of the minimal luciferase reporter pG5-GL3 and 0.1 μg of the control reporter pCMV/β-gal. […]

Substance	BrdU incorporation on serum stimulation (WI-38 cells [1])	S phase entry induced by co-expression of E2F1/DP1 and cyclin E/Cdk2 (WI-38 cells [2])	expression of Cdk4, cyclin D1 and p27^KIP1 [3]	mitogen-induced cyclin E protein expression [3]	KRIP-1-associated co-activating function on GAL4-TRIP-Br transcriptional activity [4]
5′-T TACCCAACAGGCTAGCTACAACGAATATCACA-3′ (DNA TTACCCAACAGGCTAGCTACAACGAATATCACA; DNA, 3' [invdT], backbone not given here) [E-Br2]	significantly inhibited	does not influence	without altering the expression	prevents mitogen-induced cyclin E expression	–
ERQIKIWFQNRRMKWKKATGCLLDDGLEGLFEDID (ERQIKIWFQNRRMKWKKATGCLLDDGLEGLFEDID-NH2) [*Br1]	–	–	–	–	complete abolishment
ERQIKIWFQNRRMKWKKTGFLTDLTLDDILFADID (ERQIKIWFQNRRMKWKKTGFLTDLTLDDILFADID-NH2) [*Br2]	–	–	–	–	complete abolishment
5′-T TGCTCAGCAGGCTAGCTACAACGACTTGCTCA-3′ (DNA TTGCTCAGCAGGCTAGCTACAACGACTTGCTCA; DNA, 3' [invdT], backbone not given here) [E-Br1]	significantly inhibited	does not influence	without altering the expression	prevents mitogen-induced cyclin E expression	–
